The supplement of paper PMC11208160

Assay: recombinant UMI read abundance after kanamycin selection (control-corrected) (log10(CPM+1)); higher = more efficient recombination; extreme values may be limits of the assay; sequences stand for … in AGTGCAGAGAAAATCGGCCAGTTTTCTCTGCCTGCAGTCCGCATGCCGTGGGACCCCTTGGGTTCTAACCTGTTGCCTAGATTTATGCAGCGGACTGCCTTTCTCCCAAAGTGATAAACCGG…AGGTTGGTTTCACT; site = the 11-nt donor
Procedure, shortened: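 For the IS621 bridge recombinase, a pooled Escherichia coli screen tested donor and donor-binding-loop pairs. Cells received the pair library together with a target plasmid encoding a fixed target and T7-inducible recombinase, then went onto IPTG (0.07 mM) plus kanamycin or unselected plates in duplicate. After PCR across the donor–target junction and sequencing, recombinant UMI counts were normalized to CPM, averaged, and scaled by control-derived factors. Each value is given as log10(CPM+1).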
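Also: IS621 bridge recombinase in Escherichia coli cells against a fixed T5 target plasmid.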

| Sequence | recombinant UMI read abundance (log10) |
| --- | --- |
| TAGTTGGCATGGACCGGTTTTCCCGGTAATCCGTATTTGTG (site TAGTTGGCTCA) | 0.476 |
| TAGTTGGCATGGACCGGTTTTCCCGGTAATCCGTATTTGTG (site TATTTGGCTCA) | 0.00327 |
| TAGTTTCCATGGACCGGTTTTCCCGGTAATCCGTATTTGAA (site TAGTTTCCTTT) | 0.228 |
| TAGTTTGCATGGACCGGTTTTCCCGGTAATCCGTATTTGCC (site TAGTTTGCTGG) | 0 |
| TATACCCCATGGACCGGTTTTCCCGGTAATCCGTATTTGAC (site TATACCCCTGT) | 1.5 |
| TATACTACATGGACCGGTTTTCCCGGTAATCCGTATTTGTG (site TATACTACTCA) | 0.195 |
| TATATCGCATGGACCGGTTTTCCCGGTAATCCGTATTTGAT (site TATATCGCTAT) | 0.63 |
| TATATGGCATGGACCGGTTTTCCCGGTAATCCGTATTTGGT (site TATATGGCTAC) | 0.39 |
| TATATGGCATGGACCGGTTTTCCCGGTAATCCGTATTTGTT (site TATATGGCTAA) | 0.36 |
| TATCAGGCATGGACCGGTTTTCCCGGTAATCCGTATTTGTG (site TATCAGGCTCA) | 0.113 |
| TATCATCCATGGACCGGTTTTCCCGGTAATCCGTATTTGGT (site TATCATCCTAC) | 0.0117 |
| TATCCCGCATGGACCGGTTTTCCCGGTAATCCGTATTTGTT (site TATCCCGCTAA) | 0.479 |
| TATCTTACATGGACCGGTTTTCCCGGTAATCCGTATTTGTA (site TATCTTACTTA) | 0.0229 |
| TATGAATCATGGACCGGTTTTCCCGGTAATCCGTATTTGCC (site TATGAATCTGG) | 1.12 |
| TATGAATCATGGACCGGTTTTCCCGGTAATCCGTATTTGCG (site TAAGAATCTCG) | 1.85 |
| TATGAATCATGGACCGGTTTTCCCGGTAATCCGTATTTGCG (site TACGAATCTCG) | 2.23 |
| TATGAATCATGGACCGGTTTTCCCGGTAATCCGTATTTGCG (site TAGGAATCTCG) | 0.768 |
| TATGAATCATGGACCGGTTTTCCCGGTAATCCGTATTTGCG (site TATGAATCTCG) | 2.18 |
| TATGACCCATGGACCGGTTTTCCCGGTAATCCGTATTTGAG (site TATGACCCTCT) | 0.00635 |
| TATGAGCCATGGACCGGTTTTCCCGGTAATCCGTATTTGGA (site TATGAGCCTTC) | 0.00722 |
| TATGCGGCATGGACCGGTTTTCCCGGTAATCCGTATTTGCT (site TATGCGGCTAG) | 0.532 |
| TATGCGGCATGGACCGGTTTTCCCGGTAATCCGTATTTGCT (site TCTGCGGCTAG) | 0.00356 |
| TATGCGGCATGGACCGGTTTTCCCGGTAATCCGTATTTGCT (site TGTGCGGCTAG) | 0.029 |
| TATGCGGCATGGACCGGTTTTCCCGGTAATCCGTATTTGCT (site TTTGCGGCTAG) | 0.00802 |
| TATGTAACATGGACCGGTTTTCCCGGTAATCCGTATTTGAC (site GTACCGTCTAA) | 0.0137 |

| Sequence | recombinant UMI read abundance (log10) |
| --- | --- |
| TATGTCCCATGGACCGGTTTTCCCGGTAATCCGTATTTGGA (site TATGTCCCTTC) | 0.00458 |
| TATTCCCCATGGACCGGTTTTCCCGGTAATCCGTATTTGTA (site TATTCCCCTTA) | 0.0102 |
| TATTCCCCATGGACCGGTTTTCCCGGTAATCCGTATTTGTA (site TCTTCCCCTTA) | 0.207 |
| TATTCCCCATGGACCGGTTTTCCCGGTAATCCGTATTTGTA (site TGTTCCCCTTA) | 0.254 |
| TATTCCCCATGGACCGGTTTTCCCGGTAATCCGTATTTGTA (site TTTTCCCCTTA) | 0.0134 |
| TATTCGGCATGGACCGGTTTTCCCGGTAATCCGTATTTGTG (site TATTAGGCTCA) | 0.0202 |
| TATTCGGCATGGACCGGTTTTCCCGGTAATCCGTATTTGTG (site TATTCGGCTCA) | 0.131 |
| TATTCGGCATGGACCGGTTTTCCCGGTAATCCGTATTTGTG (site TATTGGGCTCA) | 0.00845 |
| TATTCGGCATGGACCGGTTTTCCCGGTAATCCGTATTTGTG (site TATTTGGCTCA) | 0.0132 |
| TATTGCACATGGACCGGTTTTCCCGGTAATCCGTATTTGGT (site TATTGCACTAC) | 0.029 |
| TATTTGGCATGGACCGGTTTTCCCGGTAATCCGTATTTGCG (site TATTTGGCTCA) | 0.0189 |
| TATTTGGCATGGACCGGTTTTCCCGGTAATCCGTATTTGCG (site TATTTGGCTCC) | 0.0115 |
| TATTTGGCATGGACCGGTTTTCCCGGTAATCCGTATTTGCG (site TATTTGGCTCG) | 0.0194 |
| TATTTGGCATGGACCGGTTTTCCCGGTAATCCGTATTTGCG (site TATTTGGCTCT) | 0.0118 |
| TATTTGGCATGGACCGGTTTTCCCGGTAATCCGTATTTGTC (site TATTTGGCTAA) | 0.0189 |
| TATTTGGCATGGACCGGTTTTCCCGGTAATCCGTATTTGTC (site TATTTGGCTCA) | 0.00726 |
| TATTTGGCATGGACCGGTTTTCCCGGTAATCCGTATTTGTC (site TATTTGGCTGA) | 0 |
| TATTTGGCATGGACCGGTTTTCCCGGTAATCCGTATTTGTC (site TATTTGGCTTA) | 0.00596 |
| TATTTGGCATGGACCGGTTTTCCCGGTAATCCGTATTTGTG (site AATTTGGCTCA) | 0.0279 |
| TATTTGGCATGGACCGGTTTTCCCGGTAATCCGTATTTGTG (site CATTTGGCTCA) | 0.0142 |
| TATTTGGCATGGACCGGTTTTCCCGGTAATCCGTATTTGTG (site GATTTGGCTCA) | 0.026 |
| TATTTGGCATGGACCGGTTTTCCCGGTAATCCGTATTTGTG (site TAATTGGCTCA) | 0.0238 |
| TATTTGGCATGGACCGGTTTTCCCGGTAATCCGTATTTGTG (site TACTTGGCTCA) | 0.00946 |
| TATTTGGCATGGACCGGTTTTCCCGGTAATCCGTATTTGTG (site TAGTTGGCTCA) | 0.00343 |
| TATTTGGCATGGACCGGTTTTCCCGGTAATCCGTATTTGTG (site TATATGGCTCA) | 0.00476 |

| Sequence | recombinant UMI read abundance (log10) |
| --- | --- |
| TATTTGGCATGGACCGGTTTTCCCGGTAATCCGTATTTGTG (site TATCTGGCTCA) | 0.00736 |
| TATTTGGCATGGACCGGTTTTCCCGGTAATCCGTATTTGTG (site TATGTGGCTCA) | 0.0139 |
| TATTTGGCATGGACCGGTTTTCCCGGTAATCCGTATTTGTG (site TATTAGGCTCA) | 0.00968 |
| TATTTGGCATGGACCGGTTTTCCCGGTAATCCGTATTTGTG (site TATTCGGCTCA) | 0.0142 |
| TATTTGGCATGGACCGGTTTTCCCGGTAATCCGTATTTGTG (site TATTGGGCTCA) | 0.00686 |
| TATTTGGCATGGACCGGTTTTCCCGGTAATCCGTATTTGTG (site TATTTAGCTCA) | 0.0189 |
| TATTTGGCATGGACCGGTTTTCCCGGTAATCCGTATTTGTG (site TATTTCGCTCA) | 0.00607 |
| TATTTGGCATGGACCGGTTTTCCCGGTAATCCGTATTTGTG (site TATTTGACTCA) | 0.0103 |
| TATTTGGCATGGACCGGTTTTCCCGGTAATCCGTATTTGTG (site TATTTGCCTCA) | 0.00864 |
| TATTTGGCATGGACCGGTTTTCCCGGTAATCCGTATTTGTG (site TATTTGGCTAA) | 0.0123 |
| TATTTGGCATGGACCGGTTTTCCCGGTAATCCGTATTTGTG (site TATTTGGCTCA) | 0.0246 |
| TATTTGGCATGGACCGGTTTTCCCGGTAATCCGTATTTGTG (site TATTTGGCTCC) | 0.0133 |
| TATTTGGCATGGACCGGTTTTCCCGGTAATCCGTATTTGTG (site TATTTGGCTCG) | 0.00904 |
| TATTTGGCATGGACCGGTTTTCCCGGTAATCCGTATTTGTG (site TATTTGGCTCT) | 0.0103 |
| TATTTGGCATGGACCGGTTTTCCCGGTAATCCGTATTTGTG (site TATTTGGCTGA) | 0 |
| TATTTGGCATGGACCGGTTTTCCCGGTAATCCGTATTTGTG (site TATTTGGCTTA) | 0.0236 |
| TATTTGGCATGGACCGGTTTTCCCGGTAATCCGTATTTGTG (site TATTTGTCTCA) | 0.0606 |
| TATTTGGCATGGACCGGTTTTCCCGGTAATCCGTATTTGTG (site TATTTTGCTCA) | 0.0154 |
| TATTTGGCATGGACCGGTTTTCCCGGTAATCCGTATTTGTG (site TCTTTGGCTCA) | 0.00921 |
| TATTTGGCATGGACCGGTTTTCCCGGTAATCCGTATTTGTG (site TGTTTGGCTCA) | 0.00811 |
| TATTTGGCATGGACCGGTTTTCCCGGTAATCCGTATTTGTG (site TTTTTGGCTCA) | 0.0282 |
| TCAAAGACATGGACCGGTTTTCCCGGTAATCCGTATTTGCG (site TCAAAGACTCG) | 1.9 |
| TCAAAGACATGGACCGGTTTTCCCGGTAATCCGTATTTGCG (site TCACAGACTCG) | 0.546 |
| TCAAAGACATGGACCGGTTTTCCCGGTAATCCGTATTTGCG (site TCAGAGACTCG) | 0.87 |
| TCAAAGACATGGACCGGTTTTCCCGGTAATCCGTATTTGCG (site TCATAGACTCG) | 0.773 |
